Assay results published in patent US11833228B2, “Fluorinated beta-hydroxybutyric acids for PET imaging” (The Governors of the University of Alberta, priority 2019, dated 2023).

What was measured:
normal BALB/c mice = assay: Dynamic PET scans of normal BALB/c mice; format: in vivo; details: dynamic PET over 30 minutes; for clearance pathway: FIG. 4A; for heart and brain uptake and retention: FIG. 4A-C
Method: (§1) Normal BALB/c mice or breast cancer xenografts were used for the PET imaging experiments. Human MDA-MB231 cells (3-5×10^6 cells in 100 μL PBS) were injected subcutaneously into 8-12 weeks old anesthetized female NIH-III nude mice (Charles River, Saint-Constant, QC, Canada). Tumors were grown for 3-4 weeks, reaching sizes of 300-500 mm^3. For fasting experiments, the food was removed from the mice for 24 h prior to the PET experiment.
Mice were anesthetized with isoflurane (40% O2/60% N2) and their body temperature was kept constant at 37° C. They were positioned and immobilized in prone position into the centre of the field of view of an INVEON® PET scanner (Siemens Preclinical Solutions, Knoxville, TN, USA). A transmission scan for attenuation correction was not acquired. Radioactivity present in the injection solution (0.5 mL insulin syringe) was determined using a dose calibrator (Atomlab™ 300, Biodex Medical Systems, New York, NY, USA). After the emission scan was started, radioactivity (4-8 MBq in 100-150 μL saline) was injected with a delay of ˜15 s through a tail vein catheter. […] Dynamic list mode data were sorted into sinograms with 54 time frames (10×2 s, 8×5 s, 6×10 s, 6×20 s, 8×60 s, 10×120 s, 5×300 s). Frames were reconstructed using the maximum a posteriori (MAP) reconstruction mode. No correction for partial volume effects was performed. Image files were further processed using the ROVER v2.0.51 software (ABX GmbH, Radeberg, Germany). Masks defining 3D ROI were set and defined by 50% thresholding. Mean standardized uptake values [SUV=(activity/mL tissue)/(injected activity/body weight) were calculated for each ROI. Time-activity curves (TAC) were generated from the dynamic scans using GraphPad® Prism 5.04 (GraphPad Software, La Jolla, CA, USA).
(§2) All semi-quantified PET data are expressed as means±SEM. Where applicable, statistical differences were tested by unpaired Student's t test and were considered significant for p<0.05 (*), p<0.01 (**) and p<0.001 (***).

[1] = test system: MDA-MB231 breast cancer xenografts; assay: Dynamic PET imaging of radiotracer uptake in MDA-MB231 tumor-bearing mice; format: in vivo, NIH-III nude mice; details: for SUV mean, Harderian glands / SUV mean, brain / SUV mean, heart / SUV mean, joint / SUV mean, kidneys / SUV mean, liver / SUV mean, muscle / SUV mean, spine / SUV mean, tumor: 60 min
Method: as §1
(§3) Mice were anesthetized with isoflurane (40% O2/60% N2) and their body temperature was kept constant at 37° C. They were positioned and immobilized in prone position into the centre of the field of view of an INVEON® PET scanner (Siemens Preclinical Solutions, Knoxville, TN, USA). A transmission scan for attenuation correction was not acquired. Radioactivity present in the injection solution (0.5 mL insulin syringe) was determined using a dose calibrator (Atomlab™ 300, Biodex Medical Systems, New York, NY, USA). After the emission scan was started, radioactivity (4-8 MBq in 100-150 μL saline) was injected with a delay of ˜15 s through a tail vein catheter. Dynamic PET data acquisition was performed in 3D list mode for 60 min. Dynamic list mode data were sorted into sinograms with 54 time frames (10×2 s, 8×5 s, 6×10 s, 6×20 s, 8×60 s, 10×120 s, 5×300 s). Frames were reconstructed using the maximum a posteriori (MAP) reconstruction mode. No correction for partial volume effects was performed. Image files were further processed using the ROVER v2.0.51 software (ABX GmbH, Radeberg, Germany). Masks defining 3D ROI were set and defined by 50% thresholding. Mean standardized uptake values [SUV=(activity/mL tissue)/(injected activity/body weight) were calculated for each ROI. Time-activity curves (TAC) were generated from the dynamic scans using GraphPad® Prism 5.04 (GraphPad Software, La Jolla, CA, USA).
as §2

[2] = test system: subcutaneous MCF-7 breast cancer tumor; assay: Dynamic PET imaging of radiotracer uptake in MCF-7 tumor-bearing mice; format: in vivo
Method: as §3, §2

| Compound | clearance pathway (normal BALB/c mice) | heart and brain uptake and retention (normal BALB/c mice) | SUV mean, Harderian glands ([1]; n=3, 24 h fasted) | SUV mean, brain ([1]; n=3, 24 h fasted) | SUV mean, heart ([1]; n=3, 24 h fasted) | SUV mean, joint ([1]; n=3, 24 h fasted) | SUV mean, kidneys ([1]; n=3, 24 h fasted) | SUV mean, liver ([1]; n=3, 24 h fasted) | SUV mean, muscle ([1]; n=3, 24 h fasted) | SUV mean, spine ([1]; n=3, 24 h fasted) | SUV mean, tumor ([1]; n=3, 24 h fasted) | SUV mean, Harderian glands ([1]; n=3, fed (unfasted)) | SUV mean, brain ([1]; n=3, fed (unfasted)) | SUV mean, heart ([1]; n=3, fed (unfasted)) | SUV mean, joint ([1]; n=3, fed (unfasted)) | SUV mean, kidneys ([1]; n=3, fed (unfasted)) | SUV mean, liver ([1]; n=3, fed (unfasted)) | SUV mean, muscle ([1]; n=3, fed (unfasted)) | SUV mean, spine ([1]; n=3, fed (unfasted)) | SUV mean, tumor ([1]; n=3, fed (unfasted)) | also measured |
| --- | --- | --- | --- | --- | --- | --- | --- | --- | --- | --- | --- | --- | --- | --- | --- | --- | --- | --- | --- | --- | --- |
| O=C(O)C[C@H](O)C[18F] [(S)[^18F]FBHB, (S)-[^18F]γ-fluoro-β-hydroxybutyric acid] | renal clearance pathway | moderate heart and brain uptake and retention | 1.15 ± 0.02 | 1.17 ± 0.02 * | 1.05 ± 0.02 * | 1.07 ± 0.08 | 1.38 ± 0.16 | 0.80 ± 0.02 * | 0.60 ± 0.03 | 1.13 ± 0.04 | 0.95 ± 0.04 | 1.10 ± 0.01 | 1.08 ± 0.02 | 0.96 ± 0.01 | 1.10 ± 0.08 | 1.44 ± 0.05 | 0.74 ± 0.01 | 0.57 ± 0.01 | 1.10 ± 0.07 | 0.91 ± 0.02 | brain retention, comparison of isomers (normal BALB/c mice; FIG. 4A lower panel): brain retention highest for the S isomer; visibility of xenograft tumors by PET imaging ([1]; intravenous administration, preliminary studies, FIGS. 8A-B and 9A-C): xenograft tumors were visible by PET imaging; tumor uptake compared with muscle uptake, comparison of isomers ([1]; subcutaneous MDA-MB-231 xenograft, FIG. 8B): higher uptake |
| O=C(O)C[C@@H](O)C[18F] [(R)[^18F]FBHB, (R)-[^18F]γ-fluoro-β-hydroxybutyric acid] | renal clearance pathway | moderate heart and brain uptake and retention | 1.39 ± 0.11 ^n.s. | 1.02 ± 0.05 ^n.s. | 0.95 ± 0.03 ^n.s. | 1.58 ± 0.02 ^p=0.0501 | 2.36 ± 0.25 ^n.s. | 0.74 ± 0.02 ^n.s. | 0.54 ± 0.02 | 1.56 ± 0.03 * | 0.89 ± 0.05 * | 1.56 ± 0.13 | 0.91 ± 0.07 | 0.84 ± 0.09 | 1.30 ± 0.10 | 1.96 ± 0.17 | 0.66 ± 0.08 | 0.50 ± 0.05 | 1.39 ± 0.03 | 0.77 ± 0.06 | brain uptake after 24 hour fast versus fed (SUV ratio versus time) ([2]; MCF7 tumor-bearing mice, FIG. 6A): increased; heart uptake after 24 hour fast versus fed (SUV ratio versus time) ([2]; MCF7 tumor-bearing mice, FIG. 6B): increased; tumor retention after 24 hour fast versus fed (SUV ratio versus time) ([2]; MCF7 tumor-bearing mice, FIG. 6C): better tumor retention; retention in tumor tissue compared to muscle tissue ([2]; subcutaneous MCF-7 tumor, FIG. 3A-B): higher retention in tumor tissue as compared to muscle tissue; MDA-MB-231 tumor and muscle uptake, 24 hour fast versus fed state (time activity curves) ([1]; FIGS. 9B-C): statistically significant increase in uptake; tumor retention in mice fed a glucose-free, fructose-based diet (SUV ratio versus time) ([1]; MDA-MB231 tumors, FIG. 7): higher; retention in tumor tissue compared to muscle tissue ([1]; subcutaneous MDA-MB231 tumor, FIG. 3A, 3C): higher retention in tumor tissue as compared to muscle tissue |
